Results from patent EP0337441A2, “Expression of a functional form of a herpes virus DNA polymerase in yeast” (E.R. Squibb & Sons, Inc., priority 1988, dated 1989).
Like-named read-outs stand apart in the source and are kept apart here.

Legend:
[1] = target: T1, HSV-1 DNA pol (Human herpesvirus 1, UniProt P04292); test: HSV DNA pol assay (high salt, 100 mM ammonium sulfate), 3H-TTP incorporation into nicked calf thymus DNA by cell extracts; format: biochemical; details: for high salt activity in the Y-MH202 yeast cell extracts (result in words): Y-MH202 extract, 23 µM ACVTP, 5.3 µM aphidicolin
Protocol: (§1) In order to determine whether HSV pol protein was expressed and whether HSV specific DNA polymerase activity could be detected in yeast cells containing pMH202, the following experiments were performed. This description represents only one example of how such a strain can be constructed. Other examples may include a different yeast host strain and/or a different transformation procedure. Yeast cells (Y 294) were transformed with pMH101 (control plasmid without the HSV pol gene) or pMH202 (expression plasmid with HSV pol gene) DNAs. Transformation of the yeast cells was accomplished using the method of J. D. Beggs (1978. Nature 275: 104 - 109). The transformants were selected for uracil prototrophy by growth on minimal media containing 182.2 g/L sorbitol; 20 g/L glucose; 6.7 g/L yeast nitrogen base (Difco) supplemented with 30µg/ml leucine, 20µg/ml histidine, 20µg/ml tryptophan and 2% glucose but lacking uracil. One colony of each type (designated Y-MH101 or Y-MH202, respectively) was selected at random for further analysis. 100 ml overnight cultures were grown from these two strains in minimal media (0.7% yeast nitrogen base [Difco]) containing the required amino acids as described above and 2% raffinose. The following day, cultures were divided in half, cells were pelleted, resuspended in 100 ml of fresh media containing either 2% raffinose or 2% galactose and again grown overnight. The following day, the four cultures were pelleted at 4°C. Cell lysates were prepared as described by Johnson et al. (1985 . Cell 43:369 - 377). This represents only one example of how such a lysate may be prepared. Cell pellets were resuspended in 1 ml 50 mM Tris-HCl, pH 8.0; 50mM NaCl, 1% dimethylsulfoxide; 10% glycerol; 5mM beta-mercaptoethanol; 10mM EDTA; 2mM benzamidine; and 1mM phenylmethylsulfonylfluoride (PMSF). Lysis was achieved by vortexing the cells 15 - 20 times for 1 minute in the presence of an equal volume of acid-washed glass beads. The extent of lysis was monitored by microscopy. The lysed extracts were transferred to 1.5 ml microfuge tubes and centrifuged for 10 minutes at 12,000 x g. Extracts were stored at -80°C in 15% glycerol until use. The final protein concentration of each of the extracts was between 5 - 6 mg/ml.
Infected cell extracts were prepared essentially as described by Karkas et al. (1986. J. Med. Chem. 29:842 - 848). HeLa S3 cells were infected with HSV-1 KOS at a multiplicity of infection of 10 plaque forming units per cell and harvested at 16 hours post infection. […]
(§2) The lysates were also analyzed for DNA polymerase enzyme activity. […]

[2] = target: T1, HSV-1 DNA pol; test: as above; format: biochemical; parameters: made in house; host or cells: Saccharomyces cerevisiae Y294 carrying pMH202 (strain Y-MH202), galactose-induced, crude cell lysate; details: HSV pol assay conditions
Protocol: In order to determine whether HSV pol protein was expressed and whether HSV specific DNA polymerase activity could be detected in yeast cells containing pMH202, the following experiments were performed. This description represents only one example of how such a strain can be constructed. Other examples may include a different yeast host strain and/or a different transformation procedure. Yeast cells (Y 294) were transformed with pMH101 (control plasmid without the HSV pol gene) or pMH202 (expression plasmid with HSV pol gene) DNAs. Transformation of the yeast cells was accomplished using the method of J. D. Beggs (1978. Nature 275: 104 - 109). The transformants were selected for uracil prototrophy by growth on minimal media containing 182.2 g/L sorbitol; 20 g/L glucose; 6.7 g/L yeast nitrogen base (Difco) supplemented with 30µg/ml leucine, 20µg/ml histidine, 20µg/ml tryptophan and 2% glucose but lacking uracil. One colony of each type (designated Y-MH101 or Y-MH202, respectively) was selected at random for further analysis. 100 ml overnight cultures were grown from these two strains in minimal media (0.7% yeast nitrogen base [Difco]) containing the required amino acids as described above and 2% raffinose. […] The extent of lysis was monitored by microscopy. […]
as §2

[3] = target: yeast alpha DNA pol (Saccharomyces cerevisiae, UniProt P13382); test: Yeast DNA polymerase (alpha pol) assay (low salt), 3H-TTP incorporation by yeast cell extracts; format: biochemical, Saccharomyces cerevesiae; details: for low salt DNA pol activity, sensitivity to drug (result in words): all of the extracts tested (also HSV-infected HeLa extract), at the concentration tested; for inhibition at 5.3 µM: aphidicolin 5.3 µM
Protocol: as §1
The lysates were also analyzed for DNA polymerase enzyme activity. Each of the four yeast cell extracts was assayed for DNA pol activity under two sets of conditions. The yeast DNA pol assay conditions were designed to detect the alpha polymerase which should be present in all lysates. The HSV DNA pol assay conditions were chosen to detect HSV specific DNA pol activity which is enhanced by high salt (100mM ammonium sulfate). In contrast, the yeast alpha DNA pol is inhibited under these salt conditions. The assay for yeast DNA polymerase was performed essentially as described in Celniker and Campbell (1982. Cell 31:201 - 213), but without addition of ribonucleotide triphosphates. Reaction mixtures contained 5µl of enzyme extract (25 - 30 µg of protein) in 10mM Tris-HCl, pH 7.5; 10 mM MgCl₂; 10 mM (NH₄)₂SO₄; 0.1 mM DTT; 100 µM each of dATP, dCTP, dGTP; 100 µM ³H-TTP (10 cpm/pmol); 40 µg/ml nicked calf thymus DNA; and 2 mM spermidine in a final volume of 50 µl. The assay for the HSV-1 DNA pol was performed as follows. […] The filters were washed thoroughly, twice using 1N HCl and once using 95% ethanol; air dried and quantitated by scintillation counting using a LKB 1214 Rackbeta counter at 63% efficiency. […]

T1 sequence (P04292 whole entry): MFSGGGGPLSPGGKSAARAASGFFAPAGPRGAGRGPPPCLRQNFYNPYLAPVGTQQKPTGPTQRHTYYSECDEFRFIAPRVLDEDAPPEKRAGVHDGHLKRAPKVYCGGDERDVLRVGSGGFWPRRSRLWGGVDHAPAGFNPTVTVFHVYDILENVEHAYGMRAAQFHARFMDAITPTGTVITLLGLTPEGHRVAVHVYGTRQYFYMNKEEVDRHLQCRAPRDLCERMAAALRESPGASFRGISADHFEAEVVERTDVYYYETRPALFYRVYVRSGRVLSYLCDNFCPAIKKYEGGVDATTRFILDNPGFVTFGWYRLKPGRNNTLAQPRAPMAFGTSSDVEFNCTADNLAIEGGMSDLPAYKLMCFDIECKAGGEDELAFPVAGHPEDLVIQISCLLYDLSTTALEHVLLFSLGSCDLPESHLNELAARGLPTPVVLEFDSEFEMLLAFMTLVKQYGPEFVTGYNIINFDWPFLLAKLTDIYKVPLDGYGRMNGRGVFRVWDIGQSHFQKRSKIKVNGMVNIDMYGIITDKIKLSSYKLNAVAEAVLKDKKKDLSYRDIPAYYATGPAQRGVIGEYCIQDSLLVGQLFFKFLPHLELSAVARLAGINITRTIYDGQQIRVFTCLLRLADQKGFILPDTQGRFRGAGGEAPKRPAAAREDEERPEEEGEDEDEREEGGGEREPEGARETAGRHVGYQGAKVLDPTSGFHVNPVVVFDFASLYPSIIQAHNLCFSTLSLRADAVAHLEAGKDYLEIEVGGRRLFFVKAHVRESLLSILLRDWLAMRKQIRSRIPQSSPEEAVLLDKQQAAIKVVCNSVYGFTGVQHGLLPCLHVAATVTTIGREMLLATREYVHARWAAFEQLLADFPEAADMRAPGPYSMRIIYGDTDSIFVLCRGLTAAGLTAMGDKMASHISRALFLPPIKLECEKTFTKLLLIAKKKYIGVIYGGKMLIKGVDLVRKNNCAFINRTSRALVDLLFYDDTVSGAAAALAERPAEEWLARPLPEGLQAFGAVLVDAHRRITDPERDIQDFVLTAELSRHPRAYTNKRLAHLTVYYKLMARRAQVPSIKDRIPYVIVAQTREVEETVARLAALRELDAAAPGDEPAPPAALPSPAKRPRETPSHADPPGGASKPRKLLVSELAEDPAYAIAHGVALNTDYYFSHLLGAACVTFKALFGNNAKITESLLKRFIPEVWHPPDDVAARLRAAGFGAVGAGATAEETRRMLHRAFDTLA
Sequence of yeast alpha DNA pol (P13382 2-1468): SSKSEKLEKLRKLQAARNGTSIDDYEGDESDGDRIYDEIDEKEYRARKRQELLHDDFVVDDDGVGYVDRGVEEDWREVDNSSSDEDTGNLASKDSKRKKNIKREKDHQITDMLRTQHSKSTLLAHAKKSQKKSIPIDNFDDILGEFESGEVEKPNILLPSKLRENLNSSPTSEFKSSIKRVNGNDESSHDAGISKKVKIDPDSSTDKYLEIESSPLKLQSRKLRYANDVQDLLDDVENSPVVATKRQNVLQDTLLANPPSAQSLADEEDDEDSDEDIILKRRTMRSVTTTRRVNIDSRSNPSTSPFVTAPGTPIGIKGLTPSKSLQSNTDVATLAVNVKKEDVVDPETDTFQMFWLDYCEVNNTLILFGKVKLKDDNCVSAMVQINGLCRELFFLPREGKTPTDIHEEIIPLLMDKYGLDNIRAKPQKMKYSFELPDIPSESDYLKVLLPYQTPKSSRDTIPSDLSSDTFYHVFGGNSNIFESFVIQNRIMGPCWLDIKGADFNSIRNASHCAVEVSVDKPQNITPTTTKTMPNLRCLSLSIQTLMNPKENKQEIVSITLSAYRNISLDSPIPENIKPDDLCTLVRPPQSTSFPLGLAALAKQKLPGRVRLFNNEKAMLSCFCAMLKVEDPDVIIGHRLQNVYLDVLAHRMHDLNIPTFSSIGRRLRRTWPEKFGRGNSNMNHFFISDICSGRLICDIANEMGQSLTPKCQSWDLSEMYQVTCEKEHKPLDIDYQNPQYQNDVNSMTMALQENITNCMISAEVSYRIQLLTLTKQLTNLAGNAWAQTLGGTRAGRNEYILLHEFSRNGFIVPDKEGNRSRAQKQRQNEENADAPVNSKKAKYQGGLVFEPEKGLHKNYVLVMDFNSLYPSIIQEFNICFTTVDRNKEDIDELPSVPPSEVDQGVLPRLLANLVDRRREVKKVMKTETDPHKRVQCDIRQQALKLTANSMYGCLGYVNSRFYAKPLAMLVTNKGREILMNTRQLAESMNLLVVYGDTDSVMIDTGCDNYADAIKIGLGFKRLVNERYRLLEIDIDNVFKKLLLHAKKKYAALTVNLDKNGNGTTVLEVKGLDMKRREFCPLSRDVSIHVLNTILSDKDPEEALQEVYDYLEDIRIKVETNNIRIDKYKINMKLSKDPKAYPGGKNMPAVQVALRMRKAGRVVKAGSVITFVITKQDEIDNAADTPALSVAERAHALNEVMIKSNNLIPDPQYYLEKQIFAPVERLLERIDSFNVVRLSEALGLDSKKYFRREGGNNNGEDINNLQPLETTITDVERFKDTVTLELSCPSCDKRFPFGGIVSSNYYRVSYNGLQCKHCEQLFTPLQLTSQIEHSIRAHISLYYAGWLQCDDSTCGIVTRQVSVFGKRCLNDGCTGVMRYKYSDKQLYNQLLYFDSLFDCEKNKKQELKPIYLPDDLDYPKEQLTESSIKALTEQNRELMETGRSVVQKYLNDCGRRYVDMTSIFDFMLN

Row | Compound | high salt activity in the Y-MH202 yeast cell extracts (result in words) [1] | inhibition at 5.3 µM ([1]; read-out: % Inhibition by Drug Aphidicolin, Yeast Expressor (Y-MH202, galactose) extract, HSV pol assay conditions, aphidicolin 5.3 µM) [%] | inhibition at 5.3 µM ([2]; read-out: % Inhibition by Drug Aphidicolin, HSV-infected HeLa cells extract, aphidicolin 5.3 µM) [%] | low salt DNA pol activity, sensitivity to drug (result in words) [3] | inhibition at 5.3 µM ([3]; read-out: % Inhibition by Drug Aphidicolin, Yeast Control (Y-MH101, galactose) extract, alpha pol assay conditions) [%] | inhibition at 5.3 µM ([3]; read-out: % Inhibition by Drug Aphidicolin, Yeast Expressor (Y-MH202, galactose) extract, alpha pol assay conditions) [%] | inhibition at 23 µM ([1]; Yeast Expressor (Y-MH202, galactose) extract, HSV pol assay conditions, ACVTP 23 µM, read-out: % Inhibition by Drug ACVTP) [%] | inhibition at 23 µM ([2]; HSV-infected HeLa cells extract, ACVTP 23 µM, read-out: % Inhibition by Drug ACVTP) [%] | inhibition at 23 µM ([3]; Yeast Control (Y-MH101, galactose) extract, alpha pol assay conditions, ACVTP 23 µM, 0% means relative activity ≥1.0, read-out: % Inhibition by Drug ACVTP) [%]
1 | C[C@@]1(CO)[C@H](O)CC[C@@]2(C)[C@H]1CC[C@H]1C[C@@H]3C[C@@]12CC[C@]3(O)CO [Aphidicolin, aphidicolin] | inhibited | 94 | 90 | sensitive | 88 | 80 |  |  | 
2 | Nc1nc2c(ncn2COCCOP(=O)(O)OP(=O)(O)OP(=O)(O)O)c(=O)[nH]1 [ACVTP, acyclovir triphosphate] | inhibited |  |  | not sensitive |  |  | 93 | 89 | 0
